Structures can show the parent of a compound that is named as a salt. Where two headings read alike, the source gives them in different places.
Legend:
[1] = target: GABA post-synaptic receptor; assay: Displacement of tritiated GABA from its post-synaptic receptor (Enna and Snyder method), suspension of synaptic membrane; assay type: binding; details: in vitro, tritiated GABA 2.9 nM final concentration
Method: The therapeutic activity of the products according to the invention has been studied.
The study was carried out in accordance with the method of ENNA and SNYDER (Brain Research 100, 81-97, 1975). The experiment was carried out in vitro in the presence of a suspension of synaptic membrane and tritiated GABA at a final concentration of 2.9 nM.
The results are expressed in Inhibit Concentration 50 (IC50), i.e. the micromolar concentration which inhibits 50% of the fixation of the GABA on its post-synaptic receptor.

[2] = system: reserpine-induced ptosis in the mouse; assay: Antagonism of reserpine-induced ptosis in the mouse; assay type: in vivo; details: 100 mg/kg intraperitoneal; reserpine 2 mg/kg intravenous at the same time; female mice; one hour after administration
Method: The anti-depressant properties of the products according to the invention have been studied in the animal. The anti-depressant activity was assessed in the test of antagonism of reserpine-induced ptosis in the mouse.
The study was carried out on batches of 10 female mice weighing 20±1 g. The products to be studied were administered by the intraperitoneal route at the same time as the reserpine by the intravenous route at the dose of 2 mg/kg.
In parallel, a control batch received only the vehicle of administration of the product to be studied and the reserpine.
One hour after administration, the animals were observed individually. All the animals of the control batch presented ptosis. For the treated batches, the animals not presenting ptosis were counted and the percentage of the animals where the ptosis was antagonized were determined.

mouse = assay: Acute toxicity in the mouse; assay type: in vivo; details: 100 mg/kg intraperitoneal
Source text: The products according to the invention may be administered by the oral route or by the injectable route.

[3] = read-out: IC50 (concentration which inhibits 50% of the fixation of the GABA on its post-synaptic receptor)

IC50 [1, 3] | Structure (SMILES) | other results
120 nM | N=c1c2ccccc2c(-c2ccccc2)nn1Cc1cc(O)no1 [SR 95894] | –
150 nM | N=c1ccc(-c2ccc(Cl)cc2)nn1Cc1cc(O)ns1 [SR 95885, 2-[(3-hydroxy-5-isothiazolyl)methyl]-3-imino-6-(4-chloro-phenyl)-2,3-dihydro-pyridazine, hydrobromide] | –
6600 nM | Cc1nn(Cc2cc(O)ns2)c(=N)cc1-c1ccccc1 [SR 95886] | –
– | N=c1ccc(-c2ccccc2)nn1Cc1cc(O)no1 [SR 95884] | IC50 ([1]; listed as 95884, read-out: IC50 (concentration which inhibits 50% of the fixation of the GABA on its post-synaptic receptor)): 1800 nM
– | N=c1ccc(-c2ccccc2)nn1Cc1cc(O)no1 [SR 95812] | IC50 ([1]; listed as 95812, read-out: IC50 (concentration which inhibits 50% of the fixation of the GABA on its post-synaptic receptor)): 1200 nM
75 nM | N=c1ccc(-c2ccc3c(c2)OCO3)nn1Cc1cc(O)no1 [SR 95895] | –

Structure (SMILES) | IC50 [1, 3] | other results
N=c1ccc(-c2ccsc2)nn1Cc1cc(O)no1 [SR 95893] | 1600 nM | –
Cc1cc(-c2ccccc2)nn(Cc2cc(O)no2)c1=N [SR 95538, 2-[(3-hydroxy 5-isoxazolyl)methyl]-3-imino-4-methyl-6-phenyl-2,3-dihydro-pyridazine, hydrobromide] | 1000 nM | animals in which ptosis was antagonized (inhibits ptosis) [2]: 30%; sign of acute toxicity (mouse): no sign of acute toxicity

Reference: patent US4873243A, “Derivatives of 3-imino-pyridazine, process for obtaining them and pharmaceutical compositions containing them” (SANOFI, priority 1985, dated 1989)
